Measurements as given in PMC5131319, “Occurrence, temporal trends, and half-lives of perfluoroalkyl acids (PFAAs) in occupational workers in China” (Scientific Reports, 2016).
Several values for one entry are separate records, joined by “and”; a condition that tells them apart may be missing. Identical values can stand only once.

Key:
[1] = Half-life estimated by annual decline rates of serum PFAAs (first-order model); format: in vivo, human; settings: for half-life: human
Description: Olsen et al.[21] found linear relationship between the logarithm of serum PFAAs concentration and time, and a first order model was adopted to estimate the half-lives of PFAAs. The elimination of PFAAs in humans was also described with the following equation: […]
If we set C(t) as 1/2C0, then the half-life
where k is the elimination rate constant. We calculated k using two approaches in the present study. In the first approach, k is defined as Cltotal/Vd, where Vd stands for the volume of distribution of PFAAs in the human body. Cltotal represents the total daily PFAAs clearance in the human body; for men and women older than 50, it refers to renal clearance, while for young women, it is defined as the sum of menstrual clearance and renal clearance. To keep consistency with other studies, Vd of PFOS and PFHxS were set at 230 mL kg^−1, and Vd of PFOA was set at 170 mL kg^−1 in this study. In the second approach, k is defined as the average annual decline rates of PFAAs in workers who participated in this study.
Serum PFAAs of workers were sequentially measured for 5 years, and they fluctuated during our sampling period, although different serum PFAAs decreased in certain years. […] For PFOA, 31 out of 42 workers decreased in the period of 2011–2012, and the serum PFOA concentration dropped by 41%. […] We assumed that there were no new inputs of PFAAs in these workers, and thus k in Eq (2) was set as the average annual serum PFAA decline rate. The half-lives of PFHxS, PFOA, and PFOS estimated by Eq (2) were 3.6, 1.7, and 1.9 years.

[2] = Daily renal clearance rate (Clrenal) and serum-to-urine ratio from paired serum and urine; format: in vivo, human; settings: for Ratio of serum-to-urine concentrations (S/U), GM: all samples; for Clrenal, GM / Clrenal, range: all workers; for Clrenal, range: minimum on the basis of LOD/2; for Renal clearance rate (PFOA) / Renal clearance rate (PFOS): individual workers
Description: The positive correlations between the PFAAs in the serum and the paired urine samples were highly statistically significant, with correlation coefficients of 0.87, 0.64, and 0.72 for PFHxS, PFOA, and PFOS, respectively, (p < 0.01). […] Additionally, the relative abundances of PFOS, PFHxS, and PFOA between the serum and paired urine samples were quite different. The relative abundances in the serum are 64%, 24%, and 12%, respectively, while those in the urine were 19%, 31%, and 40%, respectively. […] Moreover, the ratio of serum-to-urine concentrations (S/U) might be an indicator for PFAA excretion in humans because PFAAs could concentrate in serum while urine excretion is considered an important PFAA elimination pathway. The GM values of S/U for PFHxS, PFOA, and PFOS in all samples were 697, 288, and 1782, respectively, indicating the difficulty in PFAA renal elimination from the workers. To exclude the potential effect of individual differences related to demographic information such as body weight and gender, the daily renal clearance rate (Clrenal) was introduced in the study. Clrenal is a parameter defined in Eq (3) that adjusts the S/U through body weight and the gender-specific daily urine excretion volume.
Paired samples with either concentration under the LOD were set as LOD/2 in the Clrenal study. The urine excretion volumes of males and females were set at 1.4 and 1.2 L/day in the study, respectively, and the body weight values of individual workers were obtained from our questionnaires. The calculated Clrenal values for PFHxS, PFOA, PFOS ranged from 2.0 × 10^−4 to 2.3, 9.0 × 10^−5 to 2.4, and 5.0 × 10^−5 to 0.54 mL day^−1 kg^−1 with GM values of 0.023, 0.067 and 0.010 mL day^−1 kg^−1, respectively (Fig. 3). The minimum values of the PFAAs Clrenal were calculated on the basis of LOD/2 instead of ND (not detected) in the present study. […] However, Zhang et al. observed that the Clrenal of PFHxS was the lowest among these 3 type of PFAAs[28]. The median Clrenal of PFAAs in the present study was similar to that of Zhou et al.’s study (0.012 mL day^−1 kg^−1 for PFHxS, 0.061 mL day^−1 kg^−1 for PFOA, and 0.010 mL day^−1 kg^−1 for PFOS)[39]. In contrast, as noted elsewhere, the Clrenal values of PFOA were the highest among those of the three PFAAs[28][38]. The most recent study on the elevated serum concentrations of PFAAs in fishery employees from Tangxun Lake also stated that the median Clrenal of PFOA (0.061 mL day^−1 kg^−1) was higher than those of the PFHxS and PFOS (0.012 and 0.010 mL day^−1 kg^−1)[39]. […] Moreover, the renal clearance rates of PFAAs in humans were not obviously influenced by the PFAAs level in the serum. […] In addition, gender could not be discounted. The Clrenal values of PFOS for the male workers were significant lower than those for the females (p < 0.01). Wong et al. studied the elimination rate constant of PFOS in a USA population and speculated that there might be other sex-specific elimination routes other than menstruation between men and women. No significant differences were found between the Clrenal values of PFOA and PFHxS for the males and females tested in the study.

[3] = k = average annual serum decline rate, no new inputs assumed, two time points

SMILES | Annual drop of serum concentration ([1]; 2009 to 2010, 37 workers) [%] | half-life [1, 3] [days] | Ratio of serum-to-urine concentrations (S/U), GM [2] | Clrenal, GM [2] [mL/day/kg] | Clrenal, range [2] | Drop of serum concentration ([1]; 2011–2012, 42 workers) [%] | Renal clearance rate (PFOA) ([2]; sampling year 2008) | Renal clearance rate (PFOA) ([2]; sampling year 2009) | Renal clearance rate (PFOA) ([2]; sampling year 2011) | Renal clearance rate (PFOA) ([2]; sampling year 2012) | Average annual decline rate of serum concentration ([1]; 2008 to 2009, 36 workers) [%] | Half-life estimated by annual decline rates [1, 3] [years] | Renal clearance rate (PFOS) ([2]; sampling year 2009) | Renal clearance rate (PFOS) ([2]; sampling year 2010) | Renal clearance rate (PFOS) ([2]; sampling year 2011)
O=S(=O)(O)C(F)(F)C(F)(F)C(F)(F)C(F)(F)C(F)(F)C(F)(F)F [PFHxS, perfluorohexane sulfonate] | 19 | 1310 | 697 | 0.023 | 2.0 × 10^−4 to 2.3 mL day^−1 kg^−1 | – | – | – | – | – | – | – | – | – | –
O=C(O)C(F)(F)C(F)(F)C(F)(F)C(F)(F)C(F)(F)C(F)(F)C(F)(F)F [PFOA, perfluorooctanoic acid] | – | 621 | 288 | 0.067 | 9.0 × 10^−5 to 2.4 mL day^−1 kg^−1 | 41 | 0.093 mL/day/kg and 0.043 mL/day/kg and 0.141 mL/day/kg and 0.074 mL/day/kg and 0.069 mL/day/kg and 0.087 mL/day/kg and 0.012 mL/day/kg and 0.060 mL/day/kg and 0.127 mL/day/kg and 0.027 mL/day/kg and 0.068 mL/day/kg and 0.030 mL/day/kg and 0.111 mL/day/kg and 0.033 mL/day/kg and 0.047 mL/day/kg and 0.161 mL/day/kg and 0.052 mL/day/kg and 0.214 mL/day/kg and 0.096 mL/day/kg and 0.055 mL/day/kg and 0.042 mL/day/kg and 0.106 mL/day/kg and 0.021 mL/day/kg and 0.157 mL/day/kg and 0.058 mL/day/kg and 0.034 mL/day/kg | 0.174 mL/day/kg and 0.318 mL/day/kg and 0.286 mL/day/kg and 0.110 mL/day/kg and 0.366 mL/day/kg and 0.046 mL/day/kg and 0.403 mL/day/kg and 0.070 mL/day/kg and 0.128 mL/day/kg and 0.090 mL/day/kg and 0.114 mL/day/kg and 0.071 mL/day/kg and 0.289 mL/day/kg and 0.235 mL/day/kg and 0.096 mL/day/kg and 0.264 mL/day/kg and 0.117 mL/day/kg and 0.057 mL/day/kg and 0.051 mL/day/kg and 0.262 mL/day/kg and 0.197 mL/day/kg and 0.077 mL/day/kg and 0.363 mL/day/kg | 0.101 mL/day/kg and 0.205 mL/day/kg and 0.124 mL/day/kg and 0.077 mL/day/kg and 0.096 mL/day/kg and 0.081 mL/day/kg and 0.014 mL/day/kg and 0.080 mL/day/kg and 0.027 mL/day/kg and 0.082 mL/day/kg and 0.120 mL/day/kg and 0.066 mL/day/kg and 0.057 mL/day/kg and 0.037 mL/day/kg and 0.063 mL/day/kg and 0.270 mL/day/kg and 0.075 mL/day/kg and 0.060 mL/day/kg and 0.085 mL/day/kg and 0.181 mL/day/kg and 0.107 mL/day/kg and 0.258 mL/day/kg and 0.674 mL/day/kg and 0.290 mL/day/kg and 0.300 mL/day/kg and 0.058 mL/day/kg | 0.089 mL/day/kg and 0.052 mL/day/kg and 0.038 mL/day/kg and 0.045 mL/day/kg and 0.082 mL/day/kg and 0.114 mL/day/kg and 0.012 mL/day/kg and 0.044 mL/day/kg and 0.098 mL/day/kg and 0.049 mL/day/kg and 0.030 mL/day/kg and 0.027 mL/day/kg and 0.029 mL/day/kg and 0.054 mL/day/kg and 0.033 mL/day/kg and 0.199 mL/day/kg and 0.105 mL/day/kg and 0.069 mL/day/kg and 0.236 mL/day/kg and 0.139 mL/day/kg and 0.040 mL/day/kg and 0.084 mL/day/kg and 0.170 mL/day/kg | – | – | – | – | –
O=S(=O)(O)C(F)(F)C(F)(F)C(F)(F)C(F)(F)C(F)(F)C(F)(F)C(F)(F)C(F)(F)F [PFOS, perfluorooctanesulfonate] | – | – | 1782 | 0.010 | 5.0 × 10^−5 to 0.54 mL day^−1 kg^−1 | – | – | – | – | – | 37 | 1.9 | 0.028 mL/day/kg and 0.066 mL/day/kg and 0.010 mL/day/kg and 0.013 mL/day/kg and 0.009 mL/day/kg and 0.037 mL/day/kg and 0.018 mL/day/kg and 0.001 mL/day/kg and 0.035 mL/day/kg and 0.004 mL/day/kg and 0.005 mL/day/kg and 0.006 mL/day/kg and 0.003 mL/day/kg and 0.019 mL/day/kg and 0.023 mL/day/kg and 0.007 mL/day/kg and 0.017 mL/day/kg and 0.024 mL/day/kg and 0.030 mL/day/kg and 0.014 mL/day/kg and 0.002 mL/day/kg and 0.032 mL/day/kg | 0.038 mL/day/kg and 0.013 mL/day/kg and 0.014 mL/day/kg and 0.058 mL/day/kg and 0.002 mL/day/kg and 0.004 mL/day/kg and 0.048 mL/day/kg and 0.039 mL/day/kg and 0.008 mL/day/kg and 0.005 mL/day/kg and 0.028 mL/day/kg and 0.009 mL/day/kg and 0.041 mL/day/kg and 0.007 mL/day/kg and 0.027 mL/day/kg and 0.026 mL/day/kg and 0.006 mL/day/kg and 0.034 mL/day/kg and 0.083 mL/day/kg and 0.020 mL/day/kg and 0.017 mL/day/kg and 0.025 mL/day/kg and 0.010 mL/day/kg | 0.007 mL/day/kg and 0.009 mL/day/kg and 0.024 mL/day/kg and 0.052 mL/day/kg and 0.018 mL/day/kg and 0.016 mL/day/kg and 0.028 mL/day/kg and 0.021 mL/day/kg and 0.017 mL/day/kg and 0.029 mL/day/kg and 0.004 mL/day/kg and 0.006 mL/day/kg and 0.003 mL/day/kg and 0.025 mL/day/kg and 0.001 mL/day/kg and 0.013 mL/day/kg and 0.023 mL/day/kg and 0.022 mL/day/kg and 0.020 mL/day/kg and 0.033 mL/day/kg and 0.002 mL/day/kg and 0.091 mL/day/kg and 0.039 mL/day/kg and 0.041 mL/day/kg
